Measured values taken from patent publication US11453640B2, “Small molecules for disrupting the super elongation complex and inhibiting transcription elongation for cancer therapy” (NORTHWESTERN UNIVERSITY, priority 2018, dated 2022).

Columns and labels:
[1] = system: SEC components AFF1 and AFF4; assay: Western blotting of SEC and P-TEFb component protein levels in treated cells; format: cell-based, human; conditions: HEK293T and HCT-116 cells, 20 μM, 6 hr
From the text: FIG. 1. Peptidomimetic identification of disruptors of the AFF4-CCNT1 interaction within the Super Elongation Complex. (A) Schematic for the identification of small molecule inhibitors of the AFF4-CCNT1 interaction using in silico high-throughput screening. Compounds from the ZINC database were docked with the AFF4-CCNT1 structure (4IMY) using a three-tier glide-docking algorithm, which led to 40 candidates. Residues forming the deep binding pocket of CCNT1 are labeled orange and residues of the AFF4 peptide are labeled red. (B) Validation screening identified KL-1 as a potential SEC disruptor using AlphaLISA screening. […] The Ki constants of both compounds were measured with the AlphaLISA assays. […] 5 μl, 10 and 20 μl cell lysates were loaded and the protein levels of AFF1, AFF4, CCNT1, CDK9 and Tubulin (load control) were determined by western blotting.
FIG. 8, related to FIG. 1. […] 293T cells were treated with 20 μM of KL-1 or KL-2 for 6 hr, and the protein levels of BRD2, BRD4, Pol II (RPB1), SPT5, MED26, MYC, HSP90 (load control) and Tubulin (load control) were measured by western blotting. […] HCT-116 cells were treated with 20 μM of KL-1 or KL-2 for 6 hr, and the protein levels of AFF1, AFF4, CCNT1, CDK9 and Tubulin (load control) were determined by western blotting. […] The log2CPM (counts per million) of the SEC subunits were calculated with HTseq. […]

MYC = assay: mRNA-seq of 293T cells after 24 hr treatment; format: cell-based, human
From the text: FIG. 6. SEC disruption targets MYC and MYC target genes. (A-B) Venn diagram of deregulated genes in 293T cells by KL-1 and KL-2. […] (C) Heat map showing the expression changes in response to SEC inhibitors, with differentially expressed canonical MYC targets, RNA splicing factors, and core SNRP assembly genes highlighted. […] Each cluster is represented by different colors and a circle node denotes each enriched term. (E) MA plots of RNA splicing and Hallmark MYC target genes in KL-2 treated, AFF1 and AFF4 co-depletion, and ELL2-depleted cells. […] The MYC genes, the PRMT5 gene, and genes encoding SEC components are denoted as red squares. (F) Western analysis of MYC protein levels in the MYC lowly expressed small cell lung cancer cell line […] and MYC-amplified small cell lung cancer cell line H2171. […] The SEC and MYC peaks were determined by MACS with a p-value cutoff at 1E-5. […] Both cell lines were treated with increasing concentrations of KL-1 and KL-2 for 3 days and the cell proliferation was measured with CellTiter-Glo luminescent cell viability assay (Promega) (n=3-6).
RNA-seq Analysis. […] Exonic reads were assigned to specific genes from Ensembl release 75 using Bioconductor package GenomicRanges countOverlaps. […] The total number of uniquely mapped reads was provided to edgeR for the calcNormFactors normalization rather than the default column sums. […]

## COc1cccc(C(=O)CC(=O)C(=O)Nc2cc(Cl)ccc2C)c1 [KL-1, N-(5-chloro-2-methylphenyl)-4-oxo-4-(3-methoxyphenyl)-2-oxobutanamide]
[1]
  protein levels of CCNT1, CDK9, Pol II, BRD2 and BRD4: no major effect
  protein levels of SEC components AFF1 and AFF4: led to depletion of SEC components AFF1 and AFF4
MYC
  MYC expression: led to decreased MYC expression
